# Patent publication US20110294741A1, “USE OF COMPOUNDS IN THE TREATMENT OF TAU-INDUCED CYTOTOXICITIES” (Bioalvo-Servicos, Investigacao e Desenvolvimento em …, priority 2008, published 2011)
# Assay: Cytotoxicity in human hepatocytes (LDH release and ATP)
# Type: cell-based
# Settings: LDH and ATP determination, read-out: LC50 (the source's name)
# Description: Cytotoxicity was assessed with a cell-based assay using human hepatocytes. Cell death was assayed by quantifying plasma membrane damage or rupture through measurement of the release of lactate dehydrogenase (LDH) (Legrand, C. et al. 1992. Lactate dehydrogenase (LDH) activity of the cultured eukaryotic cells as marker of the number of dead cells in the medium. J. Biotechnol. 25: 231-243), a stable cytoplasmic enzyme present in most cells. Determination of cell viability was performed by quantifying ATP (Cree I. A and Andreotti P. E. 1997. Measurement of cytotoxicity by ATP-based luminescence assay in primary cell cultures and cell lines. Toxicology in vitro, 11: 553-556), a marker for cell viability because it is present in all metabolically active cells and the concentration declines very rapidly when the cells undergo necrosis or apoptosis.
structure (smiles),measurement,value
"N=C(N)NCCCC(NC(=O)C(N)Cc1ccc(O)cc1)C(N)=O [KTP-NH2, L-Tyr-L-Arg-NH2]",CC50,> 125 µM
